Laboratory results published in US5534416A, “Fluorescent viability assay using cyclic-substituted unsymmetrical cyanine dyes” (Molecular Probes, Inc., priority 1993, dated 1996).
Where two headings read alike, the source gives them in different places.

Legend:
[1] = tested on: intact cells; settings: cited from earlier work; for pH sensitivity / Loading / Retention: in words
[2] = tested on: calf thymus DNA; settings: Table 5; bound to excess calf thymus DNA (50 bp/dye); cited from earlier work
[3] = tested on: B. cereus; assay: Fluorescence per cell, stained bacteria (microtiter plate reader); assay type: cell-based, Bacillus cereus; settings: optimal dye concentration, corrected for cell number
Protocol: (§1) 1. Measured in a fluorescence microtiter plate reader with extraction and
(§2) emission filters at 485+/-10 and 530+/-12, respectively. Fluorescence dat
(§3) are corrected for cell number; but are not corrected for cell volume or
(§4) 2. Optimal dye concentrations determined as in Example 3.
(§5) 3. Suspension concentrations as used for Example 3.
(§6) A culture of E. coli is washed by centrifugation and resuspended in water to its original volume. Using Corning 96-well microtiter plates with flat bottoms, 150 μL volumes of suspension are loaded per well. A single well of sterile water is the well background standard. Using a Dynatech MR600 microplate reader equipped with a 410 nm filter, absorbance is determined for the initial volumes of suspension. The suspension is diluted seven times by serial ten-fold dilutions in water, 150 μL of suspension per well, and the absorbance measured for each dilution. Following the absorbance measurements, each dilution loaded into wells is further diluted 1:10 and plated in duplicate on nutrient growth agar. The colonies are counted and expressed as colony forming units per milliliter (cfu/mL). Using the turbidity of the dilution in the microtiter plate, the suspension is diluted to a density of about 1×10^9 cfu/mL.
(§7) The bacteria suspension, adjusted to a known density as described above, is diluted seven times by serial ten-fold dilutions in water; 150 μL of suspension per well. Three-fold serial dilutions of dye are used (30-0.04 μM); 50 μL of dye at 4× final concentration. Using Corning 96-well microtiter flat-bottom plates, a matrix is set up whereby the cell concentration decreases across the plate and the dye concentration decreases down the plate, final volume per well is 200 μL. The top row and first column are reserved for the control, sterile water. The plate is incubated at 37° C. for 30 minutes, then read in a Millipore Cytofluor™ 2350 96-well fluorescence microplate reader at a fixed excitation of 485+/-10 nm and each of three emission wavelengths, 530+/-12, 620+/-20, or 645+/-20 nm. The results determine the best dye range (30-1 μM) and the best cell concentrations (concentrated through first three ten-fold dilutions) for optimal dye loading. […] Using the four dye dilutions and the four bacterial dilutions, many bacteria and dyes can be assayed quickly. The data collected allow the determination of optimal dye and cell concentration required for maximal fluorescence intensity per cell.

[4] = tested on: M. luteus; assay: as above; assay type: cell-based, Micrococcus luteus; settings: optimal dye concentration, corrected for cell number
Protocol: as §1, §2, §3, §4, §5, §6, §7

[5] = tested on: S. pyogenes; assay: as above; assay type: cell-based, Streptococcus pyogenes; settings: optimal dye concentration, corrected for cell number
Protocol: as §1, §2, §3, §4, §5, §6, §7

[6] = tested on: S. aureus; assay: as above; assay type: cell-based, Staphylococcus aureus
Source text: as §1, §2, §3, §4, §5
(§8) Factors such as degree of fluorescence enhancement with nucleic acid binding, self quenching, molar extinction coefficient, membrane permeability, intracellular partitioning, nucleic acid binding affinity, and quantum yield contribute to the overall fluorescence of nucleic acid stains in cells. Enhanced cell fluorescence obtained with Dye I is related to unexpected properties other than quantum yield alone. Quantum yield is determined as described above (foot note to Table 2). Normalized quantum yield is determined to illustrate the fold-change in quantum yield of Dye I compared with thiazole orange, a related cell-permeant dye. The normalized fluorescence values represent the quantum yield of each dye divided by the quantum yield of thiazole orange. Fluorescence per cell is also scaled to thiazole orange values for both E. coli and S. aureus to allow direct comparison between relative (normalized) quantum yield and relative (normalized) fluorescence/cell.
as §6, §7

[7] = tested on: E. coli; assay: as above; assay type: cell-based, Escherichia coli
Source text: as §1, §2, §3, §4, §5, §8, §6, §7

[8] = tested on: S. oranienburg; assay: as above; assay type: cell-based, Salmonella oranienburg; settings: optimal dye concentration, corrected for cell number
Protocol: as §1, §2, §3, §4, §5, §6, §7

[9] = tested on: K. pneumonia; assay: as above; assay type: cell-based, Klebsiella pneumonia; settings: optimal dye concentration, corrected for cell number
Protocol: as §1, §2, §3, §4, §5, §6, §7

[10] = tested on: S. sonnei; assay: as above; assay type: cell-based, Shigella sonnei; settings: optimal dye concentration, corrected for cell number
Protocol: as §1, §2, §3, §4, §5, §6, §7

[11] = tested on: P. aeruginosa; assay: as above; assay type: cell-based, Pseudomonas aeruginosa; settings: optimal dye concentration, corrected for cell number
Protocol: as §1, §2, §3, §4, §5, §6, §7

[12] = tested on: nucleic acids; assay: Excitation/emission maxima of dyes complexed with nucleic acids; assay type: physicochemical; parameters: key: wavelength in nm; settings: Table 2; dye complexed with nucleic acids
Source text: Dye I is lightly colored and is virtually non-fluorescent when diluted in aqueous solution according to the method of the invention. Dye I is highly membrane-permeant and labels all cells, whether live or dead. When Dye I binds with intracellular nucleic acid polymers such as DNA and RNA, the resultant dye-nucleic acid complex becomes extremely fluorescent upon illumination. The quantum yield of the preferred Dye I/DNA complex is greater than 0.02, typically greater than 0.1, preferably greater than 0.2, and more preferably greater than 0.3. Typically, Dye I combines with intracellular nucleic acids to give a green or red fluorescence. When excited at a wavelength between about 300 nm and about 500 nm, the dyes complexed with nucleic acids have an emission maximum between about 500 and about 610 nm (see Table 2). Preferably, Dye I complexed with nucleic acids has an emission maximum of between about 500 nm and about 535 nm, resulting in a true green fluorescent signal in cells of the sample where Dye I is present alone.

[13] = tested on: DNA; assay: Quantum yield of dye on DNA versus fluorescein; assay type: physicochemical
Source text: ^ Quantum yield (QY) of dye on DNA (standard solution in Tris buffere
saline adjusted to pH 10) in comparison with fluorescein, which is assume
to have a quantum yield of 0.92 under the test conditions.
as §8

For “5-(and-6)-Carboxy-2',7'-dichloro-fluorescein diacetate”, the pH sensitivity [1] is listed as “Lower pH-”.

In the case of `CC(=O)OCOC(=O)c1ccc2c(c1)C(=O)OC21c2ccc(OC(C)=O)cc2Oc2cc(OC(C)=O)ccc21` [5-Carboxyfluorescein diacetate AM], the “T1/2 (time for half of dye to leak from intact cells)” value ([1]; 37° C.) is given as < 30 min, the Loading [1] is given as “readily loaded” and the Retention [1] is given as “Moderate”.

In the case of `CC(=O)OCOC(=O)CN(CC(=O)OCOC(C)=O)Cc1c(O)ccc2c(C)cc(=O)oc12` [Calcein Blue AM], the “T1/2 (time for half of dye to leak from intact cells)” value ([1]; "probably", temperature not stated) is given as < 15 min and the Loading [1] is given as “Easily loaded”.

For `CC(=O)Oc1ccc2c(c1)Oc1cc(OC(C)=O)ccc1C21OC(=O)c2ccccc21` [Fluorescein diacetate], the “T1/2 (time for half of dye to leak from intact cells)” value ([1]; 37° C.) is listed as < 10 min, the Loading [1] is listed as “Easily loaded” and the Retention [1] is listed as “poorly retained”.

For `O=C(O)c1ccccc1C1c2cc(Cl)c(O)cc2Oc2cc(O)c(Cl)cc21` [H2 DCF], the Retention [1] is given as “poor retention” and the pH sensitivity [1] is given as “pH-insensitive”.

For `C[n+]1c(C=C2C=CN(CCC[N+](C)(C)CCC[N+](C)(C)CCCN3C=CC(=Cc4oc5ccccc5[n+]4C)c4ccccc43)c3ccccc32)oc2ccccc21` [YOYO-1], the EM max [2] is listed as 509 nm and the EX max [2] is listed as 491 nm.

In the case of `C[n+]1c(C=CC=C2C=CN(CCC[N+](C)(C)CCC[N+](C)(C)CCCN3C=CC(=CC=Cc4oc5ccccc5[n+]4C)c4ccccc43)c3ccccc32)oc2ccccc21` [YOYO-3], the EM max [2] is listed as 631 nm and the EX max [2] is listed as 612 nm.

In the case of `C[n+]1c(C=C2C=C(Cl)N(c3ccccc3)c3ccccc32)sc2ccccc21` [compound 591], the “Fluorescence/Cell (ex 485/em 530)” value [3] is reported as 58, the “Fluorescence/Cell (ex 485/em 530)” value [4] is reported as 375 and the “Fluorescence/Cell (ex 485/em 530)” value [5] is reported as < 0.01. For the same compound, the “Fluorescence/Cell (ex 485/em 530)” value ([6]; S. aureus, optimal dye concentration, corrected for cell number) was 3, the “Normalized Fluorescence/cell (ex 485 nm/em 530 nm), Staphylococcus aureus” value ([6]; scaled to thiazole orange) was 0.9 and the “Fluorescence/Cell (ex 485/em 530)” value ([7]; E. coli, optimal dye concentration, corrected for cell number) was 2. For the same compound, the “Normalized Fluorescence/cell (ex 485 nm/em 530 nm), Escherichia coli” value ([7]; scaled to thiazole orange) was 1, the “Fluorescence/Cell (ex 485/em 530)” value [8] was 2 and the “Fluorescence/Cell (ex 485/em 530)” value [9] was 2. The “Fluorescence/Cell (ex 485/em 530)” value [10] was 1, the “Fluorescence/Cell (ex 485/em 530)” value [11] was 1 and the EM max [12] was 532. For the same compound, the EX max [12] was 509, the “Normalized QY” value ([13]; QY divided by QY of thiazole orange) was 0.5 and the “QY (DNA)” value ([13]; Table 2, Tris buffered saline pH 10, fluorescein assumed 0.92) was 0.09. It also gave a QY ([13]; Table 7, on DNA, fluorescein reference) of 0.09.
